Reference: ChEMBL document CHEMBL3885881, “DrugMatrix”
Where “and” joins values, the source holds several entries; their conditions need not be identical. Equal entries are not always repeated.

Organism: Rattus norvegicus
Test: DrugMatrix - Regimen: Daily Repeat
Assay type: toxicity, organism-based, Sprague-Dawley
Set-up: regimen Daily Repeat, gender Male, age 6-8 weeks
Conditions: in vivo, ip, route intraperitoneal, vehicle 100 % SALINE; for ABSOLUTE BASOPHIL / ABSOLUTE EOSINOPHIL / ABSOLUTE LYMPHOCYTE / ABSOLUTE MONOCYTE / ABSOLUTE SEGMENTED NEUTROPHIL / BASOPHIL / EOSINOPHIL / ERYTHROCYTE COUNT / HEMATOCRIT / HEMOGLOBIN / LEUKOCYTE COUNT / LYMPHOCYTE / MEAN CORPUSCULAR HEMOGLOBIN / MEAN CORPUSCULAR HEMOGLOBIN CONCENTRATION / MEAN CORPUSCULAR VOLUME / MONOCYTE / NEUTROPHIL / PLATELET COUNT: tissue Blood; for ALANINE AMINOTRANSFERASE / ALBUMIN / ALKALINE PHOSPHATASE / ASPARTATE AMINOTRANSFERASE / BLOOD UREA NITROGEN / CARBON DIOXIDE / CHLORIDE / CHOLESTEROL / CREATINE PHOSPHOKINASE / CREATININE / GLUCOSE / LACTATE DEHYDROGENASE / LIPASE / PHOSPHORUS / POTASSIUM / SODIUM / TOTAL BILIRUBIN / TOTAL PROTEIN / URIC ACID: tissue Plasma
[1] = 0 mg/kg, 120 h, dose level Control, time 5 day
[2] = 0 mg/kg, […], dose level Control, time 14 day
[3] = 0 mg/kg, […], dose level Control, time 28 day
[4] = 40 mg/kg, 120 h, dose level High, time 5 day
[5] = 40 mg/kg, […], dose level High, time 14 day
[6] = 40 mg/kg, […], dose level High, time 28 day

NC[C@H]1O[C@H](O[C@H]2[C@H](O)[C@@H](O[C@H]3O[C@H](CO)[C@@H](O)[C@H](N)[C@H]3O)[C@H](N)C[C@@H]2N)[C@H](N)C[C@@H]1O [TOBRAMYCIN]
ABSOLUTE BASOPHIL [1]: 32 cells/µL | ABSOLUTE EOSINOPHIL [1]: 110 cells/µL | ABSOLUTE LYMPHOCYTE [1]: 6630 cells/µL | ABSOLUTE MONOCYTE [1]: 140 cells/µL | ABSOLUTE SEGMENTED NEUTROPHIL [1]: 1170 cells/µL | BASOPHIL [1]: 0.38% and 0.35% | EOSINOPHIL [1]: 1.28% and 0.62% | ERYTHROCYTE COUNT [1]: 7.45 x10E6/uL and 7.26 x10E6/uL | HEMATOCRIT [1]: 45.74% and 47.97% | HEMOGLOBIN [1]: 14.72 G/DL and 15.38 G/DL | LEUKOCYTE COUNT [1]: 8.11 x10E3/uL and 8.68 x10E3/uL | LYMPHOCYTE [1]: 81.3% and 86.77% | MEAN CORPUSCULAR HEMOGLOBIN [1]: 19.76 pg and 21.18 pg | MEAN CORPUSCULAR HEMOGLOBIN CONCENTRATION [1]: 32.16 G/DL and 32.05 G/DL | MEAN CORPUSCULAR VOLUME [1]: 61.38 fL and 66.15 fL | MONOCYTE [1]: 1.76% and 1.57% | NEUTROPHIL [1]: 14.9% and 9.53% | PLATELET COUNT [1]: 1322.4 x10E3/uL and 1786 x10E3/uL | ALANINE AMINOTRANSFERASE [1]: 25.8 u/L and 20.5 u/L | ALBUMIN [1]: 3.64 G/DL and 4.35 G/DL | ALKALINE PHOSPHATASE [1]: 233.6 u/L and 300 u/L | ASPARTATE AMINOTRANSFERASE [1]: 81.4 u/L and 86.75 u/L | BLOOD UREA NITROGEN [1]: 14.4 mg/dL and 17 mg/dL | CARBON DIOXIDE [1]: 29 mmol/L | CHLORIDE [1]: 105.6 MEQ/L and 106.25 MEQ/L | CHOLESTEROL [1]: 69.2 mg/dL and 51.25 mg/dL | CREATINE PHOSPHOKINASE [1]: 384.75 u/L | CREATININE [1]: 0.56 mg/dL and 0.47 mg/dL | GLUCOSE [1]: 125.4 mg/dL and 128.75 mg/dL | LACTATE DEHYDROGENASE [1]: 105.4 u/L and 145 u/L | LIPASE [1]: 22.4 u/L and 13.25 u/L | PHOSPHORUS [1]: 11.48 mg/dL and 11.8 mg/dL | POTASSIUM [1]: 5.52 MEQ/L and 6.58 MEQ/L | SODIUM [1]: 147 MEQ/L and 151 MEQ/L | TOTAL BILIRUBIN [1]: 0.2 mg/dL and 0.33 mg/dL | TOTAL PROTEIN [1]: 6.1 G/DL and 6.53 G/DL | URIC ACID [1]: 1.06 mg/dL and 1.95 mg/dL | ABSOLUTE BASOPHIL [2]: 130 cells/µL | ABSOLUTE EOSINOPHIL [2]: 140 cells/µL | ABSOLUTE LYMPHOCYTE [2]: 13500 cells/µL | ABSOLUTE MONOCYTE [2]: 400 cells/µL | ABSOLUTE SEGMENTED NEUTROPHIL [2]: 2330 cells/µL | HEMATOCRIT [2]: 45.98% | ABSOLUTE BASOPHIL [3]: 91 cells/µL | ABSOLUTE EOSINOPHIL [3]: 110 cells/µL | ABSOLUTE LYMPHOCYTE [3]: 9910 cells/µL | ABSOLUTE MONOCYTE [3]: 210 cells/µL | ABSOLUTE SEGMENTED NEUTROPHIL [3]: 1560 cells/µL | BASOPHIL [3]: 0.77% | EOSINOPHIL [3]: 0.92% | ERYTHROCYTE COUNT [3]: 8.21 x10E6/uL | HEMATOCRIT [3]: 47.53% | HEMOGLOBIN [3]: 15.65 G/DL | LEUKOCYTE COUNT [3]: 11.91 x10E3/uL | LYMPHOCYTE [3]: 83.34% | MEAN CORPUSCULAR HEMOGLOBIN [3]: 19.07 pg | MEAN CORPUSCULAR HEMOGLOBIN CONCENTRATION [3]: 32.93 G/DL | MEAN CORPUSCULAR VOLUME [3]: 57.9 fL | MONOCYTE [3]: 1.68% | NEUTROPHIL [3]: 12.97% | PLATELET COUNT [3]: 1323.8 x10E3/uL | CARBON DIOXIDE [2]: 25 mmol/L | ALANINE AMINOTRANSFERASE [3]: 30 u/L | ALBUMIN [3]: 3.71 G/DL | ALKALINE PHOSPHATASE [3]: 186.8 u/L | ASPARTATE AMINOTRANSFERASE [3]: 78.2 u/L | BLOOD UREA NITROGEN [3]: 14.2 mg/dL | CHLORIDE [3]: 105.4 MEQ/L | CHOLESTEROL [3]: 44.9 mg/dL | CREATINE PHOSPHOKINASE [3]: 334.3 u/L | CREATININE [3]: 0.6 mg/dL | GLUCOSE [3]: 147.2 mg/dL | LACTATE DEHYDROGENASE [3]: 123.1 u/L | LIPASE [3]: 9.6 u/L | PHOSPHORUS [3]: 10.01 mg/dL | POTASSIUM [3]: 6.57 MEQ/L | SODIUM [3]: 149.5 MEQ/L | TOTAL BILIRUBIN [3]: 0.21 mg/dL | TOTAL PROTEIN [3]: 6.66 G/DL | URIC ACID [3]: 1.26 mg/dL | ABSOLUTE BASOPHIL [4]: 78 cells/µL | ABSOLUTE EOSINOPHIL [4]: 120 cells/µL | ABSOLUTE LYMPHOCYTE [4]: 8040 cells/µL | ABSOLUTE MONOCYTE [4]: 210 cells/µL | ABSOLUTE SEGMENTED NEUTROPHIL [4]: 920 cells/µL | BASOPHIL [4]: 0.78% and 0.42% | EOSINOPHIL [4]: 1.32% and 0.7% | ERYTHROCYTE COUNT [4]: 7.61 x10E6/uL and 7.29 x10E6/uL | HEMATOCRIT [4]: 45.66% and 46.27% | HEMOGLOBIN [4]: 15.22 G/DL and 14.92 G/DL | LEUKOCYTE COUNT [4]: 9.41 x10E3/uL and 6.74 x10E3/uL | LYMPHOCYTE [4]: 84.78% and 87.65% | MEAN CORPUSCULAR HEMOGLOBIN [4]: 20.04 pg and 20.48 pg | MEAN CORPUSCULAR HEMOGLOBIN CONCENTRATION [4]: 33.38 G/DL and 32.25 G/DL | MEAN CORPUSCULAR VOLUME [4]: 60.02 fL and 63.45 fL | MONOCYTE [4]: 2.34% and 1.52% | NEUTROPHIL [4]: 10.36% and 8.62% | PLATELET COUNT [4]: 1436.6 x10E3/uL and 1523 x10E3/uL | ALANINE AMINOTRANSFERASE [4]: 32.4 u/L and 20.5 u/L | ALBUMIN [4]: 3.42 G/DL and 4.17 G/DL | ALKALINE PHOSPHATASE [4]: 217.6 u/L and 314.25 u/L | ASPARTATE AMINOTRANSFERASE [4]: 80.2 u/L and 91.75 u/L | BLOOD UREA NITROGEN [4]: 14.8 mg/dL and 15.25 mg/dL | CARBON DIOXIDE [4]: 25.75 mmol/L | CHLORIDE [4]: 109.8 MEQ/L and 108.25 MEQ/L | CHOLESTEROL [4]: 58.4 mg/dL and 56 mg/dL | CREATINE PHOSPHOKINASE [4]: 257.6 u/L and 601.5 u/L | CREATININE [4]: 0.52 mg/dL and 0.5 mg/dL | GLUCOSE [4]: 127.2 mg/dL and 121.75 mg/dL | LACTATE DEHYDROGENASE [4]: 84.6 u/L and 185.75 u/L | LIPASE [4]: 17 u/L and 8.25 u/L | PHOSPHORUS [4]: 10.22 mg/dL and 12.03 mg/dL | POTASSIUM [4]: 6.26 MEQ/L and 5.68 MEQ/L | SODIUM [4]: 151.2 MEQ/L and 152 MEQ/L | TOTAL BILIRUBIN [4]: 0.14 mg/dL and 0.3 mg/dL | TOTAL PROTEIN [4]: 5.84 G/DL and 6.38 G/DL | URIC ACID [4]: 0.98 mg/dL and 1.82 mg/dL | ABSOLUTE BASOPHIL [5]: 120 cells/µL | ABSOLUTE EOSINOPHIL [5]: 60 cells/µL | ABSOLUTE LYMPHOCYTE [5]: 7970 cells/µL | ABSOLUTE MONOCYTE [5]: 180 cells/µL | ABSOLUTE SEGMENTED NEUTROPHIL [5]: 970 cells/µL | ABSOLUTE BASOPHIL [6]: 110 cells/µL | ABSOLUTE EOSINOPHIL [6]: 140 cells/µL | ABSOLUTE LYMPHOCYTE [6]: 11000 cells/µL | ABSOLUTE MONOCYTE [6]: 270 cells/µL | ABSOLUTE SEGMENTED NEUTROPHIL [6]: 2010 cells/µL | BASOPHIL [6]: 0.75% | EOSINOPHIL [6]: 1.01% | ERYTHROCYTE COUNT [6]: 8.16 x10E6/uL | HEMATOCRIT [6]: 47.35% | HEMOGLOBIN [6]: 15.56 G/DL | LEUKOCYTE COUNT [6]: 13.61 x10E3/uL | LYMPHOCYTE [6]: 82.08% | MEAN CORPUSCULAR HEMOGLOBIN [6]: 19.08 pg | MEAN CORPUSCULAR HEMOGLOBIN CONCENTRATION [6]: 32.87 G/DL | MEAN CORPUSCULAR VOLUME [6]: 58.02 fL | MONOCYTE [6]: 1.93% | NEUTROPHIL [6]: 13.77% | PLATELET COUNT [6]: 1300.9 x10E3/uL | CARBON DIOXIDE [5]: 24 mmol/L | ALANINE AMINOTRANSFERASE [6]: 28.5 u/L | ALBUMIN [6]: 3.56 G/DL | ALKALINE PHOSPHATASE [6]: 137.2 u/L | ASPARTATE AMINOTRANSFERASE [6]: 79.3 u/L | BLOOD UREA NITROGEN [6]: 16.3 mg/dL | CHLORIDE [6]: 108.2 MEQ/L | CHOLESTEROL [6]: 59.4 mg/dL | CREATINE PHOSPHOKINASE [6]: 132.4 u/L | CREATININE [6]: 0.68 mg/dL | GLUCOSE [6]: 127.2 mg/dL | LACTATE DEHYDROGENASE [6]: 83.6 u/L | LIPASE [6]: 12.4 u/L | PHOSPHORUS [6]: 8.3 mg/dL | POTASSIUM [6]: 5.48 MEQ/L | SODIUM [6]: 152.3 MEQ/L | TOTAL BILIRUBIN [6]: 0.18 mg/dL | TOTAL PROTEIN [6]: 6.53 G/DL | URIC ACID [6]: 0.96 mg/dL
